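Test compounds were applied to cells in 96-well plates for 48 hours at 5 doses. GI50 marks 50% less growth.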 Activity calls are given as the source filed them. Rule as the data show it: active = GI50 up to about 1.1 µM and inactive = higher.
Tests used:
Experiment in all cases: NCI-60 cell line screen, 48 h
[1] = tested on: HCT-15
[2] = tested on: NCI-H23
[3] = tested on: M14
[4] = tested on: SK-MEL-5
[5] = tested on: SNB-19
[6] = tested on: HCT-116
[7] = tested on: CCRF-CEM
[8] = tested on: A549
[9] = tested on: HCC 2998
[10] = tested on: UACC-62
[11] = tested on: NCI-H226
[12] = tested on: MOLT-4
[13] = tested on: LOX IMVI
[14] = tested on: CAKI-1
[15] = tested on: KM12
[16] = tested on: K562
[17] = tested on: OVCAR-5

Measured: GI50

CC(=O)O[C@H]1CCC2[C@@H]3CCC4c5nonc5CC[C@]4(C)C3CC[C@@]21C (stereo partly drawn)
> 10 µM: [1]
inactive: [2] > 10 µM | [3] > 10 µM | [4] > 10 µM | [5] > 10 µM | [6] > 10 µM | [7] > 10 µM | [8] > 10 µM | [9] > 10 µM | [10] > 10 µM | [11] > 10 µM | [12] > 10 µM | [13] > 10 µM | [14] > 10 µM | [15] > 10 µM | [16] > 10 µM | [17] > 10 µM

CNC(SC)=C1C(=O)OC(C)(C)OC1=O
19.8 µM: [1]
inactive: [2] > 100 µM | [3] > 100 µM | [4] > 100 µM | [5] > 100 µM | [6] 58.2 µM | [7] > 100 µM | [8] > 100 µM | [9] > 100 µM | [10] > 100 µM | [11] > 100 µM | [12] > 100 µM | [13] 73.3 µM | [14] > 100 µM | [15] > 100 µM | [16] > 100 µM | [17] > 100 µM

N#CC(C(=O)/C(=N/N)C(C#N)c1ccccc1)c1ccccc1 (stereo not drawn)
inactive: [2] > 100 µM | [3] > 100 µM | [4] > 100 µM | [5] > 100 µM | [6] > 100 µM | [7] > 100 µM | [8] > 100 µM | [9] > 100 µM | [10] > 100 µM | [11] > 100 µM | [12] > 100 µM | [13] > 100 µM | [14] > 100 µM | [15] > 100 µM | [16] > 100 µM | [17] > 100 µM
> 100 µM: [1]

COC1C(OC(=O)c2ccc(C)[nH]2)C(O)C(Oc2ccc3c(O)c(NC(=O)c4c[nH]c(C(=O)Nc5c(O)c6ccc(OC7OC(C)(C)C(OC)C(OC(=O)c8ccc(C)[nH]8)C7O)c(C)c6oc5=O)c4C)c(=O)oc3c2C)OC1(C)C (stereo not drawn)
active: [5] 0.693 µM | [10] 0.724 µM | [12] 0.857 µM
inactive: [2] 1.24 µM | [4] 2.61 µM | [7] 2.34 µM | [8] 3.39 µM | [9] 2.59 µM | [11] 1.96 µM | [13] 2.77 µM | [14] 2.75 µM | [15] 1.32 µM | [16] 2.84 µM | [17] 2.84 µM
1.88 µM: [1]

NC(=O)N/N=C(/c1nc2ccc([N+](=O)[O-])cc2nc1O)C(O)c1ccco1 (stereo not drawn)
inactive: [2] > 100 µM | [3] 93.8 µM | [4] 30 µM | [5] > 100 µM | [6] > 100 µM | [7] 34.7 µM | [8] 93.8 µM | [9] 31 µM | [10] 29.2 µM | [11] > 100 µM | [12] 94.6 µM | [13] 21.6 µM | [14] 61.7 µM | [16] 33.9 µM | [17] > 100 µM
12 µM: [1]

CC1=Nc2ccccc2S(=O)(=O)N1
inactive: [2] > 100 µM | [3] > 100 µM | [4] > 100 µM | [5] > 100 µM | [6] > 100 µM | [7] > 100 µM | [8] > 100 µM | [9] > 100 µM | [10] > 100 µM | [11] > 100 µM | [12] > 100 µM | [13] > 100 µM | [14] > 100 µM | [15] > 100 µM | [16] > 100 µM | [17] > 100 µM
> 100 µM: [1]

O=C(CCN1CCN(c2ccccc2)CC1)N1CCc2c([nH]c3ccccc23)C1c1cccnc1 (stereo not drawn)
15.2 µM: [1]
inactive: [2] 21 µM | [3] 15.8 µM | [4] 14.4 µM | [5] 23.3 µM | [6] 14.9 µM | [7] 20.6 µM | [8] 14.8 µM | [9] 21.7 µM | [10] > 10 µM | [11] 25.9 µM | [12] 12 µM | [13] 16.1 µM | [14] 18.1 µM | [15] 18 µM | [16] 15.9 µM | [17] 16.9 µM

O=c1[nH][nH]c(=O)[nH]1
inactive: [2] > 100 µM | [3] > 100 µM | [4] > 100 µM | [5] > 100 µM | [6] > 100 µM | [7] > 100 µM | [8] > 100 µM | [9] > 100 µM | [10] > 100 µM | [11] > 100 µM | [12] > 100 µM | [13] > 100 µM | [14] > 100 µM | [15] > 100 µM | [16] > 100 µM | [17] > 100 µM
> 100 µM: [1]
